Measurements taken from patent publication US5441743A, “Marine compositions bearing preferentially concentrated domains of non-tin, organo anti-fouling agents” (priority 1993, dated 1995).
Where “and” joins values, the source holds several entries; their conditions need not be identical. Equal values may be shown once. Read-outs that look alike come from different tables or passages of the source.

Key:
rats = conditions: oral; cited from earlier work
fouling = assay: Anti-fouling panel exposure in the ocean at Daytona Beach, rating 0 to 10; conditions: for General Rating, 1 Mo. / General Rating, 4 Mos. / General Rating, 6 Mos.: Example 15, Table 7, agent as is
From the text: Test panels were 15.24 cm×30.48 cm (6 in×12 in) in dimension and were constructed of a white plastic top surface and a black plastic bottom surface. The test panels were coated on both sides with the two formulations above-tabulated at a film thickness of about 5 mils dry. The test panels then were exposed horizontally with the white surface upward and the black surface downward in the ocean at Daytona Beach, Fla., U.S.A. A control panel consisted of 12 wt-% triphenyl tin hydroxide dispersed in a resinous vinyl binder (80 wt-parts of a vinyl chloride polymer, VAGH brand, Union Carbide Corporation, New York, N.Y.) reduced in methyl ethyl ketone solvent to 50% solids content. After exposure, the control and test panels were inspected and assigned a numerical rating from 0 to 10 based on the amount of surface area of the panel that was free from fouling, a rating of "10" corresponding to perfect protection. The following results were recorded.

[1] = SEM / Energy Dispersion Spectroscopy analysis of cured epoxy resin; format: physicochemical; conditions: Example 16, Sample 2 (FIG. 2); EDS
From the text: An epoxy resin system was examined for its ability to be modified so as to preferentially influence the concentration or location of an anti-fouling agent (Nopocide N-96, see Example 1) within its structure. A direct comparison was made between an epoxy resin (EPON 828 epoxy resin, diglycidyl ether of bis-phenol A, Shell Chemical Company) and the same epoxy resin containing a domain structuring polymeric material, such as a polysulfide resin (LP-32 polysulfide resin, Thiokol Corporation). Both systems contained the same anti-fouling agent. The compositions formulated are set forth below: […]

rats or mice = conditions: cited from earlier work
mammalian = conditions: in words; cited from earlier work
fish = conditions: in words; cited from earlier work
[2] = listed as 2,3-Dichloro-1,4-Naphthaquinone
[3] = Example 11, Table 3, additive at 20 wt-%, 10 is perfect protection
[4] = Example 12, Table 4, additive at 20 wt-%
[5] = Example 13, Table 5, additive at 20 wt-%
[6] = Example 14, Table 6, additive at 20 wt-%
[7] = Example 10, 20 wt-% in Control Paint, 10 is perfect protection

C=CCc1ccc(O)c(OC)c1 [Eugenol, 4-allyl-2-methoxyphenol]
LD50 value (rats): 2,000 mg/kg | General Rating, 1 Mo. (fouling): 9 and 7 | General Rating, 4 Mos. (fouling): 3 | General Rating, 6 Mos. (fouling): 0

CCN(CC)c1nc(C)cc(OP(=S)(OC)OC)n1 [methyl, diethylamino, dimethoxythiophosphate derivative of pyrimidine]
LD50 value (rats): 2,000 mg/kg

O=C1C(Cl)=C(Cl)C(=O)c2ccccc21 [2,3-dichloro-1,4-napthoquinone]
General Rating, 6 Mos. (fouling): 0 | General Rating, 1 Mo. (fouling; [2]): 7 and 5 | General Rating, 4 Mos. (fouling; [2]): 6 and 3

Oc1c(Cl)cc(Cl)c(Cl)c1Cc1c(O)c(Cl)cc(Cl)c1Cl [hexachlorophene]
chlorine concentration in round island domains [1]: 48% | chlorine concentration in sea-like domains [1]: 36%

C=C(Cl)CSC(=S)N(CC)CC [2-chloro-2-propenyl diethylcarbamodithioate]
LD50 value (rats or mice; in vivo, po): 850

O=C(O)CNCP(=O)(O)O [aminoacetic acid derivative of methylphosphonate]
LD50 value (rats or mice; species not given, in mg/kg): 4,300

Nc1cc(Cl)ccc1Cl [2,5-Dichloroaniline]
Rating After Exposure, 4 Months (fouling; [3]): 0 | Rating After Exposure, 462 Days (fouling; [3]): 0

C=CCC1=C(C)C(OC(=O)C2C(C=C(C)C)C2(C)C)CC1=O (centres unmarked) [allyl, methylhydroxy substituted cyclopententone ester of dimethylpropenyl cyclopropane carboxylic acid]
LD50 value (rats or mice; species not given, in mg/kg): 1,000

Nc1ccc(Cl)c(Cl)c1 [3,4-Dichloroaniline]
Rating After Exposure, 4 Months (fouling; [3]): 0 | Rating After Exposure, 462 Days (fouling; [3]): 0

C#CCOS(=O)OC1CCCCC1Oc1ccc(C(C)(C)C)cc1 (centres unmarked) [dimethylethylphenoxy-cyclohexyl-2-propynyl sulfite]
LD50 value (rats or mice; species not given, in mg/kg): 2,200

O=C1OC(=O)C2C1C1(Cl)C(Cl)=C(Cl)C2(Cl)C1(Cl)Cl (centres unmarked) [1,4,5,6,7,7-hexachloro-5-norborene-2,3-dicarboxylic anhydride]
Rating After Exposure, 4 Months (fouling; [4]): 0

Nc1cnn(-c2ccccc2)c(=O)c1Cl [amino, chloro, phenyl derivative of azacyclohexamine]
LD50 value (rats or mice; species not given, in mg/kg): 3,030

C=CCC1=C(C)C(OC(=O)[C@@H]2[C@@H](C=C(C)C)C2(C)C)CC1=O (stereo partly drawn) [d-Trans-Allerthrin]
Rating After Exposure, 1 Months (fouling; [5]): 0-1 | Rating After Exposure, 4 Months (fouling; [5]): 0

CCCCCCCCCCCCCCCC[N+](C)(C)C.[Br-] [cetyltrimethylammonium bromide]
LD50 value (rats): 500 mg/kg

C#CC(C)(C)NC(=O)c1cc(Cl)cc(Cl)c1 [Pronamide, 3,5-dichloro-N-(3,3-dimethylpropyne)benzamide]
Rating After Exposure, 1 Months (fouling; [5]): 0 | Rating After Exposure, 4 Months (fouling; [5]): 0

Nc1cc(Cl)cc(C(=O)O)c1Cl [2,5-dichloro,3-amino benzoic acid]
LD50 value (rats or mice; in vivo, po): 5,620

OB(O)O [boric acid]
LD50 value (rats): 3,000 mg/kg | anti-fouling activity (fouling; in words): quite active as an anti-fouling agent

CN(C)C(=O)Nc1ccc(Cl)c(Cl)c1 [3-(3,4-Dichlorophenyl)-1,1-dimethyl urea]
Rating After Exposure, 1 Months (fouling; [6]): 9 | Rating After Exposure, 4 Months (fouling; [6]): 0

NC(=O)Cc1cccc2ccccc12 [napthalene acetamide]
LD50 value (rats or mice; in vivo, po): 1,000

CCCCCCCCCCCCCCCC[n+]1ccccc1 [cetylpyridinium chloride]
LD50 value (rats): 200 mg/kg

O=C(Nc1cccc2c(NC(=O)n3ccnc3)cccc12)n1ccnc1
Rating After Exposure, 1 Months (fouling; [6]): 6-7 | Rating After Exposure, 4 Months (fouling; [6]): 0

N#Cc1c(Cl)c(Cl)c(Cl)c(Cl)c1C#N [Nopocide, 1,2-dicyano, tetrachlorobenzene]
Rating After Exposure, 4 Months (fouling; [7]): 0 | Rating After Exposure, 462 Days (fouling; [7]): 0

COP(=S)(OC)Oc1ccc(Sc2ccc(OP(=S)(OC)OC)cc2)cc1 [dimethoxythiophosphate derivative of diphenyl sulfide]
LD50 value (rats): 2030 mg/kg

c1ccc(Nc2ccccc2)cc1 [diphenylamine]
General Rating, 1 Mo. (fouling): 5 | General Rating, 6 Mos. (fouling): 0 | General Rating, 4 Mos. (fouling; listed as Diphenylanaline): 4 and 3 | mammalian toxicity (mammalian): Low mammalian toxicity

Nc1c(Cl)cc([N+](=O)[O-])cc1Cl [2,-6-dichloro, 4-nitroaniline]
Rating After Exposure, 4 Months (fouling; [3]): 0 | Rating After Exposure, 462 Days (fouling; [3]): 0

CCNc1nc(Cl)nc(NC(C)C)n1 [2-isopropylamino-4-chloro-6-ethylamino triazine]
LD50 value (rats): 1869 mg/kg

O=C(O)Cc1c(Cl)ccc(Cl)c1Cl [trichlorophenyl acetic acid]
LD50 value (rats or mice; species not given, in mg/kg): 1,780

CCCCCCCCCCCCNC(=N)N [dodecylguanidine monoacetate]
LD50 value (rats or mice; species not given, in mg/kg): 1,000

CC(C)C(C(=O)OC(C#N)c1cccc(Oc2ccccc2)c1)c1ccc(Cl)cc1 (centres unmarked) [diphenyl ether, chlorophenyl derivative of the isobutyric acid ester of hydroxyacetonitrile]
LD50 value (rats or mice; in vivo, po): 451 | toxicity to fish (fish): toxic to fish

c1ccc2c(c1)Nc1ccccc1S2 [Phenothiazine]
Rating After Exposure, 4 Months (fouling; [4]): 0

C=CCN(CC=C)C(=O)CCl [2-chloro-N,N-diallylacetamide]
LD50 value (rats): 700 mg/kg | LD50 value (rats or mice; species not given, in mg/kg): 750 | General Rating, 1 Mo. (fouling): 5 | General Rating, 4 Mos. (fouling): 4 | General Rating, 6 Mos. (fouling): 0

CCOC(=O)C(O)(c1ccc(Cl)cc1)c1ccc(Cl)cc1 [ethyl 4-chloro-alpha(4-chlorophenyl)alpha-hydroxy benzene acetate]
LD50 value (rats): 5,000 mg/kg

Oc1ccccc1-c1ccccc1 [o-phenylphenol]
LD50 value (rats or mice; species not given, in mg/kg): 2,700
